6 compounds from patent US20210246115A1 (Bioimics AB, priority 2017, published 2021) can be followed below.

For assay [1], the system named is Staphylococcus aureus subsp. aureus (ATCC29213). Briefly: MIC, broth microdilution (CLSI), Staphylococcus aureus ATCC29213. It is filed as cell-based. As to conditions: Staphylococcus aureus. (In broth dilution the organism is exposed to a series of concentrations in liquid medium.)
Assay [2] deals with E. coli JW5503 (efflux defective). Briefly: MIC, E. coli JW5503 (efflux defective). As to conditions: Escherichia coli, read-out: E. coli JW5503 (efflux defective) MIC. The assay is classed as cell-based.
The test system of assay [3] is E. coli RNase P RNA, M1 RNA. Briefly: Inhibition of bacterial RNase P activity, IC50 determination (cleavage of pATSerUG by M1 RNA). The assay is classed as biochemical. Conditions: NI: No inhibition.
The subject of assay [4] is A. baumannii ATCC 17978. Briefly: MIC, A. baumannii ATCC 17978. It is filed as cell-based. As to conditions: Acinetobacter baumannii, ATCC17978; Table XIV B. Gram-negative bacteria.
Assay [5] has as its system S. aureus USA300 MRSA BAA-1717. Put plainly: MIC, S. aureus USA300 MRSA BAA-1717. The assay is classed as cell-based. As to conditions: Staphylococcus aureus, read-out: S. aureus USA300 MRSA BAA-1717 MIC.
The subject of assay [6] is H. influenzae ATCC 49247. Put plainly: MIC, H. influenzae ATCC 49247. Conditions: Haemophilus influenzae, ATCC49247; Table XIV B. Gram-negative bacteria. The assay is classed as cell-based.
Assay [7] relates to M. phlei ATCC 11758. Briefly: MIC, M. phlei ATCC 11758. It is filed as cell-based. As to conditions: Mycolicibacterium phlei, ATCC11758; Table XIV A. Gram-positive bacteria.
In assay [8] the test system is Escherichia coli (ATCC25922). Put plainly: MIC, broth microdilution (CLSI), Escherichia coli. As to conditions: Escherichia coli.
Assay [9] concerns P. aeruginosa NTUH974 (MDR). Briefly: MIC, P. aeruginosa NTUH974 (MDR). The assay is classed as cell-based. As to conditions: Pseudomonas aeruginosa, read-out: P. aeruginosa NTUH974 (MDR) MIC.
The test system of assay [10] is S. aureus MRSA ATCC 33591. Put plainly: MIC, S. aureus MRSA ATCC 33591. As to conditions: Staphylococcus aureus, read-out: S. aureus MRSA ATCC 33591 MIC. It is filed as cell-based.
Assay [11] has as its system S. pneumoniae ATCC 49619. Put plainly: MIC, S. pneumoniae ATCC 49619. The assay is classed as cell-based. Conditions: Streptococcus pneumoniae, ATCC49619; Table XIV A. Gram-positive bacteria.
Assay [12] relates to K. pneumoniae ATCC 43816. Put plainly: MIC, K. pneumoniae ATCC 43816. The assay is classed as cell-based. Conditions: Klebsiella pneumoniae, ATCC43816; Table XIV B. Gram-negative bacteria.
For assay [13], the system named is N. gonorrhoeae ATCC 700825. Put plainly: MIC, N. gonorrhoeae ATCC 700825. It is filed as cell-based. Conditions: Neisseria gonorrhoeae, ATCC700825; Table XIV B. Gram-negative bacteria.
In assay [14] the test system is M. fortuitum ATCC 110. Put plainly: MIC, M. fortuitum ATCC 110. It is filed as cell-based. Conditions: Mycolicibacterium fortuitum, ATCC110; Table XIV A. Gram-positive bacteria.
The subject of assay [15] is E. faecium ATCC 700221. Put plainly: MIC, E. faecium ATCC 700221. As to conditions: Enterococcus faecium. It is filed as cell-based.
Assay [16] relates to H. pylori ATCC 43504. Briefly: MIC, H. pylori ATCC 43504. It is filed as cell-based. As to conditions: Helicobacter pylori, ATCC43504; Table XIV B. Gram-negative bacteria.
Assay [17] concerns Pseudomonas aeruginosa (ATCC27853). Briefly: MIC, broth microdilution (CLSI), Pseudomonas aeruginosa. It is filed as cell-based.
The subject of assay [18] is Enterococcus faecalis (ATCC29212). Briefly: MIC, broth microdilution (CLSI), Enterococcus faecalis. The assay is classed as cell-based.
For assay [19], the system named is Staphylococcus aureus (ATCC25923). Briefly: MIC, broth microdilution (CLSI), Staphylococcus aureus ATCC25923. As to conditions: Staphylococcus aureus, ATCC25923, read-out: S. aureus ATCC 25923 MIC.
Setting [20] is: ATCC29213, Table XIII, read-out: S. aureus ATCC 29213 MIC.
Where [21] appears, read: ATCC29213, Table XIV A. Gram-positive bacteria, read-out: S. aureus ATCC 29213 MIC.
[22] abbreviates: Table XIV A. Gram-positive bacteria.
Setting [23] is: ATCC25922, read-out: E. coli ATCC 25922 MIC, Table XIII.
Setting [24] is: ATCC25922, read-out: E. coli ATCC 25922 MIC, Table XIV B. Gram-negative bacteria.
Setting [25] is: Table XIV B. Gram-negative bacteria.
Setting [26] is: ATCC700221, Table XIV A. Gram-positive bacteria, read-out: E. faecium ATCC 700221 MIC.
[27] abbreviates: ATCC27853, Table XIV B. Gram-negative bacteria, read-out: P. aeruginosa ATCC 27853 MIC.
Setting [28] is: ATCC29212, Table XIV A. Gram-positive bacteria, read-out: E. faecalis ATCC 29212 MIC.

pIC50: −log10 of the molar value. ≈ marks a conversion by molar mass, not a printed value. Structures can show the parent of a compound that is named as a salt. Where two headings read alike, the source gives them in different places.

As for `Cc1cccc(-c2ccc3c(c2)c(C2CCCC(NCCCN)C2)cn3C2CCCCC2)c1` (stereo not drawn) [Compound 381, N1-(3-(1-cyclohexyl-5-(m-tolyl)-1H-indol-3-yl)cyclohexyl)propane-1,3-diamine], the MIC in assay [1] (setting [20]) worked out at 2 µg/mL (≈ 4.51 µM); in assay [1] (setting [21]) it was 2 µg/mL (≈ 4.51 µM); in [2], 2 µg/mL (≈ 4.51 µM); in [4], 4 µg/mL (≈ 9.02 µM); in [5] (setting [22]), 2 µg/mL (≈ 4.51 µM); in [6], 2 µg/mL (≈ 4.51 µM). Moreover, the MIC in assay [7] amounted to 4 µg/mL (≈ 9.02 µM); in [8] (setting [23]), 4 µg/mL (≈ 9.02 µM); in [8] (setting [24]), 2 µg/mL (≈ 4.51 µM); in assay [9] (setting [25]), 8 µg/mL (≈ 18 µM); in [10] (setting [22]) it was 2 µg/mL (≈ 4.51 µM); in assay [11] it was 8 µg/mL (≈ 18 µM). Besides, the MIC in assay [12] was found to be 4 µg/mL (≈ 9.02 µM); in assay [13] it was 2 µg/mL (≈ 4.51 µM); in [14], 4 µg/mL (≈ 9.02 µM); in [15] (setting [26]), 1 µg/mL (≈ 2.25 µM); in [16], 8 µg/mL (≈ 18 µM); in assay [17] (setting [27]) it was 4 µg/mL (≈ 9.02 µM). Further, the MIC in assay [18] (setting [28]) stood at 2 µg/mL (≈ 4.51 µM). Moreover, in assay [3], the pIC50 is 4.96.

In the case of `Cc1cccc(C(CCNCCCN)c2cn(C3CCCCC3)c3cc(Br)ccc23)c1.Cl.Cl` (stereo not drawn) [Compound 357, N1-(3-(6-bromo-1-cyclohexyl-1H-indol-3-yl)-3-(m-tolyl)propyl)propane-1,3-diamine hydrochloride salt], the MIC in [1] (setting [20]) amounted to 4 µg/mL; in [1] (setting [21]), 2 µg/mL; in assay [2] it was 4 µg/mL; in assay [4], 4 µg/mL; in [5] (setting [22]) it was 2 µg/mL; in assay [6], 2 µg/mL. The MIC in assay [7] was 4 µg/mL; in assay [8] (setting [23]), 4 µg/mL; in assay [8] (setting [24]), 2 µg/mL; in [9] (setting [25]), 4 µg/mL; in assay [10] (setting [22]) it was 2 µg/mL; in [11], 8 µg/mL. In addition, the MIC in assay [12] stood at 2 µg/mL; in assay [13], 2 µg/mL; in assay [14], 4 µg/mL; in [15] (setting [26]) it was 1 µg/mL; in assay [16], 16 µg/mL; in assay [17] (setting [27]), 4 µg/mL. In addition, the MIC in [18] (setting [28]) stood at 2 µg/mL. Moreover, the pIC50 in [3] is 5.00.

As to `N#Cc1ccc2c(c1)c(C(CCNCCCN)c1cccc(OC(F)(F)F)c1)cn2C1CCCCC1` (stereo not drawn) [Compound 372, 3-(3-((3-aminopropyl)amino)-1-(3-(trifluoromethoxy)phenyl)propyl)-1-cyclohexyl-1H-indole-5-carbonitrile, dihydrochloride salt], the MIC turned out to be 4 µg/mL in [1] (ATCC29213, read-out: S. aureus ATCC 29213 MIC, Table XIII); 2 µg/mL in assay [1] (ATCC29213, read-out: S. aureus ATCC 29213 MIC, Table XIV A. Gram-positive bacteria); 2 µg/mL in [2]; 4 µg/mL in assay [4]; 2 µg/mL in assay [5]; 4 µg/mL in assay [6]. In addition, the MIC in [7] worked out at 4 µg/mL; in assay [8] (setting [23]) it was 4 µg/mL; in assay [8] (setting [24]), 2 µg/mL; in assay [9] it was 8 µg/mL; in assay [10] it was 4 µg/mL; in assay [11], 8 µg/mL. The MIC in [12] was determined as 2 µg/mL; in assay [13], 4 µg/mL; in assay [14] it was 4 µg/mL; in [15] (ATCC700221, read-out: E. faecium ATCC 700221 MIC), 2 µg/mL; in assay [16], 16 µg/mL; in assay [17] (ATCC27853, read-out: P. aeruginosa ATCC 27853 MIC), 8 µg/mL. For the same compound, the MIC in assay [18] (ATCC29212, read-out: E. faecalis ATCC 29212 MIC) was 2 µg/mL. Moreover, in assay [3], the negative-log IC50 (pIC50) is 5.04.

For `Cl.Cl.NCCCNCCC(c1cn(C2CCCCC2)c2ccccc12)C1CCCCC1` (stereo not drawn) [Compound 371, N1-(3-cyclohexyl-3-(1-cyclohexyl-1H-indol-3-yl)propyl)propane-1,3-diamine hydrochloride], the MIC stood at 4 µg/mL in assay [1] (setting [20]); 4 µg/mL in assay [1] (setting [21]); 2 µg/mL in assay [2]; 4 µg/mL in [4]; 4 µg/mL in [5] (setting [22]); 4 µg/mL in assay [6]. Besides, the MIC in assay [7] came out at 4 µg/mL; in [8] (setting [23]), 2 µg/mL; in [8] (setting [24]), 2 µg/mL; in [9] (setting [25]), 8 µg/mL; in [10] (setting [22]), 4 µg/mL; in assay [11], 8 µg/mL. Moreover, the MIC was determined as 4 µg/mL in [12]; 2 µg/mL in assay [13]; 4 µg/mL in assay [14]; 2 µg/mL in assay [15] (setting [26]); 16 µg/mL in [16]; 8 µg/mL in assay [17] (setting [27]). Also, in assay [18] (setting [28]), the MIC came to 4 µg/mL. Moreover, in [3] (hydrochloride), the pIC50 was 5.05.

Consider `Cc1cccc(-c2ccc3c(c2)c(CCN[C@H]2CC[C@H](N)CC2)cn3CC2CCCCC2)c1` [Compound 225, (1R,4R)-N1-(2-(1-(cyclohexylmethyl)-5-(m-tolyl)-1H-indol-3-yl)ethyl)cyclohexane-1,4-diamine hydrochloride salt], for which the MIC in assay [1] (setting [20]), in [1] (setting [21]), in assay [2], in assay [4], in assay [5] (setting [22]) and in [19] was 2 µg/mL throughout. Further, the MIC in assay [6] worked out at 4 µg/mL; in assay [7] it was 1 µg/mL; in [8] (setting [23]), 2 µg/mL; in [8] (setting [24]), 2 µg/mL; in assay [9] (setting [25]) it was 16 µg/mL; in [10] (setting [22]) it was 2 µg/mL. Moreover, the MIC in [11] was determined as 8 µg/mL; in assay [12], 2 µg/mL; in assay [13], 2 µg/mL; in [14] it was 1 µg/mL; in assay [15] (setting [26]), 1 µg/mL; in [17] (setting [27]), 8 µg/mL. For the same compound, in assay [18] (setting [28]), the MIC was determined as 2 µg/mL. Also, in assay [3], the pIC50 was 4.93.

Take `NC1CCC(NCCC(c2cccc(OC(F)(F)F)c2)c2cn(CC3CCCCC3)c3ccccc23)CC1` [Compound 173, (1S,4S)-N1-(3-(1-(cyclohexylmethyl)-1H-indol-3-yl)-3-(3-(trifluoromethoxy)phenyl)propyl)cyclohexane-1,4-diamine hydrochloride salt]: the MIC is 2 µg/mL in [1] (setting [20]); 2 µg/mL in [1] (setting [21]); 4 µg/mL in assay [2]; 4 µg/mL in [4]; 2 µg/mL in assay [5] (setting [22]); 2 µg/mL in assay [19]. Moreover, the MIC in assay [6] was determined as 4 µg/mL; in [7], 1 µg/mL; in assay [8] (setting [23]) it was 4 µg/mL; in assay [8] (setting [24]), 4 µg/mL; in assay [9] (setting [25]), 16 µg/mL; in assay [10] (setting [22]), 2 µg/mL. The MIC in assay [11] was found to be 8 µg/mL; in assay [12], 4 µg/mL; in [13], 2 µg/mL; in assay [14], 2 µg/mL; in assay [15] (setting [26]), 2 µg/mL; in assay [17] (setting [27]) it was 16 µg/mL. Besides, in assay [18] (setting [28]), the MIC is 2 µg/mL. Also, in [3], the negative-log IC50 (pIC50) was 5.52.

In general, pIC50 refers to the IC50 on a negative log10 scale, so that one unit is a factor of ten. The low end stands for a large IC50, the high end for a small IC50.
